{"source": "ChEMBL document CHEMBL1155846", "about": "“Selectivity determinants of inhibitor binding to human 20alpha-hydroxysteroid dehydrogenase: crystal structure of the enzyme in ternary complex with coenzyme and the potent inhibitor 3,5-dichlorosalicylic acid” (J Med Chem, 2008)", "key": {"[1]": {"target": "T1, Aldo-keto reductase family 1 member C4 (Homo sapiens, UniProt P17516)", "T1 sequence (P17516 whole entry)": "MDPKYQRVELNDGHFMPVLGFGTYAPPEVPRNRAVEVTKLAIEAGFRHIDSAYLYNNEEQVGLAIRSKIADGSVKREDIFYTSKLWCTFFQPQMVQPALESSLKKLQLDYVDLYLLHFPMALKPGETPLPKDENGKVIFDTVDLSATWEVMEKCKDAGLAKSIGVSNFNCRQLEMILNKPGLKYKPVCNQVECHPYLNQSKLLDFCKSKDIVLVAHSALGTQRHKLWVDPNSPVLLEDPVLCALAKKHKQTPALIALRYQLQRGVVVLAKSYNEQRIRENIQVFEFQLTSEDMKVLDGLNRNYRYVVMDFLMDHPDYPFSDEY", "experiment": "Inhibition of human recombinant AKR1C4"}, "[2]": {"target": "T2, Aldo-keto reductase family 1 member C3 (Homo sapiens, UniProt P42330)", "T2 sequence (P42330 whole entry)": "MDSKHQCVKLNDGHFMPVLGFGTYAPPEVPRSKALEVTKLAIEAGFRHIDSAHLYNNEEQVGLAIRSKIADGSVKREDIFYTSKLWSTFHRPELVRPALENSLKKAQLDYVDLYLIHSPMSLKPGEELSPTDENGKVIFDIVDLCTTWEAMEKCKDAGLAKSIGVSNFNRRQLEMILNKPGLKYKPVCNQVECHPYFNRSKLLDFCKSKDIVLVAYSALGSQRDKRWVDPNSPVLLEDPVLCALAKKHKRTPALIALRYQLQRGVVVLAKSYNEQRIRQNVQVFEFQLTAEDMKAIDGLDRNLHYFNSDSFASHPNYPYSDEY", "experiment": "Inhibition of human recombinant AKR1C3"}}, "data": [{"compound": "O=C(O)c1cc(Cl)cc(Cl)c1O", "values": [{"measurement": "Ki", "setting": "[1]", "result": 24, "unit": "µM"}, {"measurement": "Ki", "setting": "[2]", "result": 94, "unit": "µM"}]}]}
